Assay [1] relates to NIH3T3 cells expressing AcGFP-PDE5A fusions. In words: FACS analysis of C-terminal PDE5A mutants (AcGFP-PDE5A fusions), Sildenafil vs vehicle. The settings on record: for Mean Fluorescence intensity: NIH3T3; for Stabilization ratio: Table 4, Sildenafil 10 μM vs vehicle alone. The format is cell-based, mouse. As to the method:
The NIH3T3 cell line was cultured in DMEM supplemented with 10% heat-inactivated donor bovine serum (Invitrogen), 2 mM glutamine, 100 U/ml penicillin and 100 μg/ml streptomycin.
The ΦNX ecotropic packaging cell line was transfected using standard Lipofectamine 2000 protocols. Viral supernatants were harvested 48 hours, post transfection, filtered and concentrated 10-fold using Amicon Ultra centrifugal filter device with a 100kDa cutoff. NIH 3T3 cells were incubated with concentrated retroviral supernatants supplemented with 4 μg/ml polybrene for 4 hours at 37° C. Cells were washed once with PBS and cultured in growth media for 24-36 hours to allow for viral integration.
The transduced NIH3T3 cells were subjected to analysis using fluorescence-activated cell sorting (FACS) to screen the libraries of PDE5A mutants. 24 hours prior to analysis, transduced NIH3T3 cells were plated at 1×10^5 cells per well of a 12-well plate. Cells were removed from the plate using PBS and 2 mM EDTA, washed once with PBS, and resuspended in 200 μL, PBS. FACS analysis was performed on instruments at the Stanford Shared FACS Facility with 10,000 events represented.
To identify destabilizing domains that are responsive to the PDE5A ligand, Sildenafil, a cell-based screening assay was employed in which the fluorescence of green fluorescent protein derived from Aequorea coerulescens (AcGFP) served as an indicator of PDE5A stability. A library based on the PDE5A catalytic domain sequences was generated using error prone PCR and then cloned in-frame in front of AcGFP. A Moloney murine leukemia retroviral expression was used to stably integrate this library of PDE5A-AcGFP fusions into NIH-3T3 fibroblasts, and the transduced cells were subjected to three rounds of sorting using flow cytometry. In the first round, cells were treated with 10 μM of PDE5A ligand, Sildenafil for 16-24 before analysis. Fluorescent cells were collected and further cultured in the absence of ligand for 60 hours.
A library of AcGFP-PDE5A fusions i.e., C-terminal PDE5A mutants was screened using the cell-based screening assay described previously to identify C-terminal destabilizing domains. […] Identified candidates were subjected to further characterization by FACS. Cells were split into two treatment groups and incubated with either Sildenafil (10 μM) or vehicle alone for 24 hours. Cells that were mock transduced or transduced with the wild-type PDE5A construct were also included in the analysis. The stabilization ratio was calculated as the fold change in GFP intensity of the AcGFP-PDE5A construct in Sildenafil treated sample compared to vehicle alone treated sample. The results are presented in Table 2 where the C terminal PDE5A mutants are denoted as PDE5AC.
Residue D764 was identified as a mutational hotspot from sequence analysis. PDE5AC (#41) was engineered with either D764N or D764G mutation via site-directed mutagenesis. PDE5AC (#41) +D764N comprises the amino acid sequence of SEQ ID NO. 53 (encoded by SEQ ID NO. 54) and PDE5AC (#41) +D764G comprises the amino acid sequence of SEQ ID NO. 55 (encoded by SEQ ID NO. 56). AcGFP-PDE5A variants were evaluated for Sildenafil dependent stabilization via FACS as described previously. Results from FACS analysis are presented in Table 4 where the C terminal PDE5A mutants are denoted as PDE5AC. The stabilization ratio was calculated as the fold change in GFP intensity of the AcGFP-PDE5A construct in Sildenafil treated sample compared to vehicle alone treated sample.
Extended versions of human PDE5A that included residues in addition to catalytic domain (residues 535-860 of SEQ ID NO. 1) with Q589R polymorphism (SEQ ID NO. 11) were evaluated for use as C-terminal destabilizing domains. Three extended PDE5A sequences were tested that consisted of residues 535-875 of SEQ ID NO. 1 with Q589R polymorphism (SEQ ID NO. 13); residues 466-875 of SEQ ID NO. 1 with Q589R polymorphism (SEQ ID NO. 15); or residues 420-875 of SEQ ID NO. […]

For a further assay, the system named is AcGFP. In words: Comparison of N-terminal and C-terminal PDE5A derived DD (FACS). The format is cell-based, human. To be noted: 24 hours. As to the method: The ability of PDE5A derived DDs to destabilize a protein of interest may depend on the position whether the DD is appended to the N terminus or the C terminus of the protein of interest. Mutant #2, and mutant #41 were appended either to the N terminus or C terminus of AcGFP and analyzed using the cell-based screening assay described previously to identify destabilizing domains. Cells were split into two treatment groups and incubated with either Sildenafil (10 μM) or vehicle alone for 24 hours. Cells that were mock transduced or transduced with the N terminal fused wild-type PDE5A or PDE5AN (#40) constructs were also included in the analysis. The results are presented in Table 8 where the C terminal PDE5A mutants are denoted as PDE5AC and N terminal PDE5A mutants are denoted as PDE5AN.
The stabilization ratio was calculated as the fold change in GFP intensity of the AcGFP-PDE5A construct in Sildenafil treated sample compared to vehicle alone treated sample.

In assay [2] the test system is NIH3T3 cells expressing AcGFP-PDE5A variants. Kind of assay: Sildenafil dose dependency (FACS, percentage of max MFI). The settings on record: Sildenafil 0.003 μM to 30 μM, read-out: half maximal effective concentration or EC50. The class given is cell-based, mouse. As to the method:
NIH3T3 cells expressing AcGFP-PDE5A variants were incubated with varying concentrations of Sildenafil ranging from 0.003 μM to 30 μM. The stability of PDE5A mutants was measured using FACS and mean fluorescence intensity (MFI) of GFP was calculated. […] Percentage of max MFI (%) was calculated as the ratio of the MFI at a ligand concentration compared to the maximum MFI. Percentage of max MFI was plotted against the concentration of Sildenafil presented in a log scale. Titration curves of PDE5AC (#2) and PDE5AC (#41) are presented in FIG. 4A and FIG. 4B, respectively. […] The half maximal effective concentration or EC50 was approximately 0.5 μM for PDE5AC (#2) and 2 μM for PDE5AC (#41).

Assay [3] has as its system NIH3T3 cells expressing AcGFP-PDE5A fusions. In words: Immunoblot analysis of AcGFP-PDE5A fusions (anti-XFP / anti-HA). The class given is cell-based, mouse. To be noted: 10 μM Sildenafil or vehicle alone, 24 hours. As to the method: Identified PDE5A mutants were further validated using immunoblot analysis. NIH3T3 cells expressing AcGFP-PDE5A fusions were incubated with 10 μM Sildenafil or vehicle alone for 24 hours and the stability of PDE5A mutants was evaluated at the protein level. Cell lysates obtained from transduced NIH3T3 cells were immunoblotted using the anti-XFP antibody (1:3000) at 4° C. overnight. Samples were also immunoblotted with anti-GAPDH antibody (1:10000) to ensure uniform protein loading. Samples were then incubated with secondary anti-mouse antibody (1:3000) at room temperature for 1 hour, followed by visualization using appropriate methods. […] The difference in band intensity recapitulates the pattern from the FACS analysis.
A hemagglutinin (HA) sequence (SEQ ID NO. 74; encoded by SEQ ID NO. 75) was cloned in-frame at either the 5′- or 3′-ends of the PDE5A mutant sequence from PDE5AC (#41). The construct further included AcGFP (amino acids 1-239 of WT) at the N terminus (SEQ ID NO. 76, encoded by SEQ ID NO. 77) and an EF linker/EcoRI restriction site (GAATTC). […] The effect of the HA sequence on ligand dependent stabilization was evaluated via immunoblot analysis. […] As show in FIG. 3, HA-tagged fusion protein expression detected with either anti-XFP antibody or anti-HA antibody was nearly identical. […]

[4] abbreviates: Table 2, Sildenafil (10 μM) +, 24 hours.
[5] abbreviates: Table 2, Sildenafil (10 μM) −, vehicle alone, 24 hours.
[6] abbreviates: Table 4 (D764 mutations), Sildenafil (10 μM) +.
Where [7] appears, read: Table 4 (D764 mutations), Sildenafil (10 μM) −.

This is an account of results in US11891634B2, “PDE5A destabilizing domains” (The Board of Trustees of the Leland Stanford Junior …, priority 2017, dated 2024).

As to “PDE5AC (#2): AcGFP fused to C-terminal DD 535-860 of PDE5A (Q589R, D687A, D764N, S815C), SEQ ID NO. 23”, the “Mean Fluorescence intensity” value is on record as 6577 in assay [1] (setting [4]), 1023 in assay [1] (setting [5]), 3483 in assay [1] (setting [6]) and 671 in assay [1] (setting [7]). In assay [1], the Stabilization ratio was 5.2. In addition, the “Mean FITC-A DMSO” value in the assay on AcGFP worked out at 1342. In addition, the “Mean FITC-A Sildenafil (10 μM)” value in the assay with AcGFP was found to be 5030. Besides, in assay [2], the EC50 is roughly 500 nM. Also, the “Fusion protein expression / ligand dependent stabilization by immunoblot” value in assay [3] is “most drastic difference in the intensity of the bands”.
In the case of “PDE5AC (#41): AcGFP fused to C-terminal DD 535-860 of PDE5A (F561L, Q589R, K604E, D724N, L797F), SEQ ID NO. 27”, the “Mean Fluorescence intensity” value in assay [1] (setting [4]) is on record as 6115; in assay [1] (setting [5]), 1000; in assay [1] (setting [6]), 4647; in assay [1] (setting [7]), 734. In addition, the Stabilization ratio in assay [1] is reported as 6.3. In addition, in the assay on AcGFP, the “Mean FITC-A DMSO” value was 1443. In addition, the “Mean FITC-A Sildenafil (10 μM)” value with AcGFP came to 4620. For the same substance, the EC50 in assay [2] is roughly 2000 nM. The “Fusion protein expression / ligand dependent stabilization by immunoblot” value in assay [3] is on record as “most drastic difference in the intensity of the bands”.
